This note sets out measurements from patent publication US7973047B2, “Beta-Secretase modulators and methods of use” (Amgen Inc., priority 2010, dated 2011).

For one assay, the system named is Aβ40 in conditioned medium of cells stably expressing Amyloid Precursor Protein (APP). Kind of assay: BACE cell-based assay: Aβ40 in conditioned medium by sandwich ELISA. The note with it: cell based assay data of Table 4; unit inferred; read-out: Cell Assay. A digest of the protocol:
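APP-stable cells grown 24 h in DMEM/10% FBS, then exposed to compounds for 24 h in a 10-point dose series starting at 100 or 10 μM, 0.1% DMSO final. Medium Aβ40 measured by pAb40/biotinylated 6E10 sandwich ELISA with Europium time-resolved fluorescence; IC50 from percent inhibition.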
On the technique in general: ELISA stands for enzyme-linked immunosorbent assay.
“N-((1S,2R)-3-(((3S,4′S)-6′-(2,2-dimethylpropyl)-3′,4,4′,5-tetrahydrospiro[furan-3,2′-pyrano[2,3-b]pyridin]-4′-yl)amino)-1-((4-fluorophenyl)methyl)-2-hydroxypropyl)acetamide N-((1S,2R)-3-(((3R,4′S)-6′-(2,2-dimethylpropyl)-3′,4,4,5-tetrahydrospiro[furan-3,2′-pyrano[2,3-b]pyridin]-4′-yl)amino)-1-((4-fluorophenyl)methyl)-2-hydroxypropyl)acetamide [compound 658]”: the IC50 was determined as 0.0202 µM.
On the same count and under the same terms, next, “N-((1S,2R)-3-(((4R)-6-(2,2-dimethylpropyl)-2,2-dimethyl-1,2,3,4-tetrahydro-4-quinolinyl)amino)-2-hydroxy-1-(phenylmethyl)propyl)acetamide N-((1S,2R)-3-(((4S)-6-(2,2-dimethylpropyl)-2,2-dimethyl-1,2,3,4-tetrahydro-4-quinolinyl)amino)-2-hydroxy-1-(phenymethyl)propyl)acetamide [compound 689]”: 0.0728 µM; “N-((1S,2R)-3-(((4′S)-6′-(2,2-dimethylpropyl)-3′,4′-dihydrospiro[cyclopropane-1,2′-pyrano[2,3-b]pyridin]-4′-yl)amino)-1-((4-fluoro-3-methylphenyl)methyl)-2-hydroxypropyl)acetamide [compound 550]”: 0.0203 µM.

The assay is the same for the next values; noted with them: cell based assay data, Table 4; unit inferred; read-out: Cell Assay.
Take `CC(=O)N[C@@H](Cc1ccc(F)c(Cl)c1)[C@H](O)CN[C@H]1CC2(CCC2)Oc2ncc(CC(C)(C)F)cc21` [compound 836]: the IC50 was determined as 0.0147 µM.
With `CC(=O)N[C@@H](Cc1cc(F)cc(Cl)c1)[C@H](O)CN[C@H]1CC2(CCC2)Oc2ncc(CC(C)(C)F)cc21` [compound 837], the IC50 is 0.00358 µM.
Turning to `CC(=O)N[C@@H](Cc1cccc(C(F)(F)F)c1)[C@H](O)CN[C@H]1CC2(CCC2)Oc2ncc(CC(C)(C)F)cc21` [compound 838], the IC50 was 0.0133 µM.
The same measure, in the same setting: with `CC(=O)N[C@@H](Cc1ccc2c(c1)OCO2)[C@H](O)CN[C@H]1CC2(CCC2)Oc2ncc(CC(C)(C)C)cc21` [compound 839] the figure was 0.00549 µM.
On the same count and under the same terms, next, `CC(=O)N[C@@H](Cc1ccc2c(c1)OCO2)[C@H](O)CN[C@H]1CC2(CCC2)Oc2ncc(CC(C)(C)F)cc21` [compound 840]: 0.0277 µM; `CC(=O)N[C@@H](Cc1ccccc1)[C@H](O)CN[C@H]1CC2(CCC2)Oc2ncc(CC(F)(F)F)cc21` [compound 841, N-((1S,2R)-2-hydroxy-1-(phenylmethyl)-3-(((4′S)-6′-(2,2,2-trifluoroethyl)-3′,4′-dihydrospiro[cyclobutane-1,2′-pyrano[2,3-b]pyridin]-4′-yl)amino)propyl)acetamide]: 0.0848 µM; `CC(=O)N[C@@H](Cc1ccc(F)c(F)c1)[C@H](O)CN[C@H]1CC2(CCC2)Oc2ncc(CC(F)(F)F)cc21` [compound 842]: 0.106 µM.
Same read-out and setting: with `CC(=O)N[C@@H](Cc1cccc(F)c1)[C@H](O)CN[C@H]1CC2(CCC2)Oc2ncc(CC(C)C)cc21` [compound 844] the figure was 0.00363 µM; with `CC(=O)N[C@@H](Cc1ccc(F)cc1)[C@H](O)CN[C@H]1CC2(CCC2)Oc2ncc(CC(C)C)cc21` [compound 845], 0.0114 µM; with `CC(=O)N[C@@H](Cc1cc(F)cc(F)c1)[C@H](O)CN[C@H]1CC2(CCC2)Oc2ncc(CC(C)C)cc21` [compound 846], 0.00172 µM.
With `CC(=O)N[C@@H](Cc1cc(F)cc(Cl)c1)[C@H](O)CN[C@H]1CC2(CCC2)Oc2ncc(CC(C)C)cc21` [compound 847], the IC50 worked out at 0.00427 µM.
The same measure, in the same setting: with `CC(=O)N[C@@H](Cc1cccc(C(N)=O)c1)[C@H](O)CN[C@H]1CC2(CCC2)Oc2ncc(CC(C)C)cc21` [compound 848] the figure was 0.0128 µM.
`CC(=O)N[C@@H](Cc1cccc(C#N)c1)[C@H](O)CN[C@H]1CC2(CCC2)Oc2ncc(CC(C)C)cc21` [compound 849]: the IC50 was 0.00126 µM.
On the same count and under the same terms, with `CC(=O)N[C@@H](Cc1cccc(F)c1F)[C@H](O)CN[C@H]1CC2(CCC2)Oc2ncc(CC(C)C)cc21` [compound 850] the figure was 0.00868 µM; with `CC(=O)N[C@@H](Cc1ccc(F)c(F)c1)[C@H](O)CN[C@H]1CC2(CCC2)Oc2ncc(CC(C)C)cc21` [compound 851], 0.00324 µM.
On the same count and under the same terms, with `CC(=O)N[C@@H](Cc1ccccc1)[C@H](O)CN[C@H]1CC2(CCC2)Oc2nc(F)c(CC(C)C)cc21` [compound 852] the figure was 0.052 µM; with `CC(=O)N[C@@H](Cc1cc(F)cc(F)c1)[C@H](O)CN[C@H]1CC2(CCC2)Oc2nc(F)c(CC(C)C)cc21` [compound 853], 0.0112 µM.
On the same count and under the same terms, next, `CC(=O)N[C@@H](Cc1ccc(F)cc1)[C@H](O)CN[C@H]1CC2(CCC2)Oc2nc(F)c(CC(C)C)cc21` [compound 854]: 0.151 µM.
With `CC(=O)N[C@@H](Cc1cccc(F)c1)[C@H](O)CN[C@H]1CC2(CCC2)Oc2nc(F)c(CC(C)C)cc21` [compound 855], the IC50 is 0.0252 µM.
On the same count and under the same terms, with `CC(=O)N[C@@H](Cc1cccc(F)c1F)[C@H](O)CN[C@H]1CC2(CCC2)Oc2nc(F)c(CC(C)C)cc21` [compound 856] the figure was 0.206 µM; with `CC(=O)N[C@@H](Cc1ccc(Cl)c(F)c1)[C@H](O)CN[C@H]1CC2(CCC2)Oc2ncc(CC(C)C)cc21` [compound 857], 0.0262 µM; with `CC(=O)N[C@@H](Cc1ccc(Cl)cc1)[C@H](O)CN[C@H]1CC2(CCC2)Oc2ncc(CC(C)C)cc21` [compound 858], 0.0527 µM.
Same read-out and setting: next, `CC(=O)N[C@@H](Cc1ccc(F)cc1)[C@H](O)CN[C@H]1CC2(CCC2)Oc2ncc(C(F)C(C)C(F)(F)F)cc21` (some centres unmarked) [compound 859]: 0.148 µM.
Turning to `CC(=O)N[C@@H](Cc1ccc(Cl)cc1)[C@H](O)CN[C@H]1CC2(CCC2)Oc2ncc(C(F)C(C)C(F)(F)F)cc21` (some centres unmarked) [compound 860], the IC50 came to 0.452 µM.
Still for that read-out and setting: next, `CC(=O)N[C@@H](Cc1cccc(F)c1)[C@H](O)CN[C@H]1CC2(CCC2)Oc2ncc(C(F)C(C)C(F)(F)F)cc21` (some centres unmarked) [compound 861]: 0.0264 µM; `CC(=O)N[C@@H](Cc1ccccc1)[C@H](O)CN[C@H]1CC2(CCC2)Oc2ncc(C(F)C(C)C(F)(F)F)cc21` (some centres unmarked) [compound 862]: 0.0741 µM.
For `CC(=O)N[C@@H](Cc1cccc(F)c1)[C@H](O)CN[C@H]1CC2(CCC2)Oc2ncc(C(O)C(C)C(F)(F)F)cc21` (some centres unmarked) [compound 863], the IC50 was 1.83 µM.
The same measure, in the same setting: next, `CC(=O)N[C@@H](Cc1ccc(Cl)cc1)[C@H](O)CN[C@H]1CC2(CCC2)Oc2ncc(C(O)C(C)C(F)(F)F)cc21` (some centres unmarked) [compound 864]: no less than 10 µM; `CC(=O)N[C@@H](Cc1ccccc1)[C@H](O)CN[C@H]1CC2(CCC2)Oc2ncc(C(O)C(C)C(F)(F)F)cc21` (some centres unmarked) [compound 865]: 1.93 µM.
On the same count and under the same terms, next, `CC(=O)N[C@H](Cc1cccc(Cl)c1F)[C@H](O)CN[C@H]1CC2(CCC2)Oc2ncc(CC(C)(C)C)cc21` [compound 866]: no less than 10 µM.
On the same count and under the same terms, next, `CC(=O)N[C@@H](Cc1cc(Cl)ccc1F)[C@H](O)CN[C@H]1CC2(CCC2)Oc2ncc(CC(C)(C)C)cc21` [compound 867]: 0.00233 µM.
Regarding `CC(=O)N[C@@H](Cc1cccc(Cl)c1F)[C@H](O)CN[C@H]1CC2(CCC2)Oc2ncc(CC(C)(C)C)cc21` [compound 868], the IC50 came out at 0.00626 µM.
Same read-out and setting: with `CC(=O)N[C@@H](Cc1cc(F)c(F)c(Cl)c1)[C@H](O)CN[C@H]1CC2(CCC2)Oc2ncc(CC(C)(C)C)cc21` [compound 869] the figure was 0.0179 µM; with `CC(=O)N[C@@H](Cc1c(F)ccc(F)c1F)[C@H](O)CN[C@H]1CC2(CCC2)Oc2ncc(CC(C)(C)C)cc21` [compound 870], 0.0356 µM.
The same measure, in the same setting: with `CC(=O)N[C@@H](Cc1cc(F)cc(F)c1F)[C@H](O)CN[C@H]1CC2(CCC2)Oc2ncc(CC(C)(C)C)cc21` [compound 871] the figure was 0.00203 µM; with `CC(=O)N[C@@H](Cc1ccc(Br)cc1)[C@H](O)CN[C@H]1CC2(CCC2)Oc2ncc(CC(C)(C)C)cc21` [compound 872], 0.0345 µM.
For `COC(=O)N[C@@H](Cc1ccccc1)[C@H](O)CN[C@H]1CC2(CCC2)Oc2ncc(CC(C)(C)C)cc21` [compound 873], the IC50 amounted to 0.0206 µM.
The same measure, in the same setting: with `CCc1cnc2c(c1)[C@@H](NC[C@@H](O)[C@H](Cc1cc(F)cc(F)c1)NC(C)=O)CC1(CCC1)O2` [compound 874] the figure was 0.0121 µM; with `CCc1cnc2c(c1)[C@@H](NC[C@@H](O)[C@H](Cc1cc(F)cc(F)c1)NC(=O)OC)CC1(CCC1)O2` [compound 875], 0.325 µM; with `COC(=O)N[C@@H](Cc1cc(F)cc(F)c1)[C@H](O)CN[C@H]1CC2(CCC2)Oc2ncc(CC(C)(C)C)cc21` [compound 876], 0.0108 µM.
In the case of `CCC(=O)N[C@@H](Cc1ccccc1)[C@H](O)CN[C@H]1CC2(CCC2)Oc2cnc(CC(C)(C)C)cc21` [compound 877], the IC50 was 0.0641 µM.
The same measure, in the same setting: next, `CC(=O)N[C@@H](Cc1ccc(F)cc1)[C@H](O)CN[C@H]1CC2(CCC2)Oc2ncc(CC(C)(C)CO)cc21` [compound 878]: 0.236 µM.
The same measure, in the same setting: with “N-((1S,2R)-3-(((2R,4S)-1′-acetyl-6-ethyl-3,4-dihydrospiro[chromene-2,3′-pyrrolidin]-4-yl)amino)-2-hydroxy-1-(phenylmethyl)propyl)acetamide N-((1S,2R)-3-(((2S,4S)-1′-acetyl-6-ethyl-3,4-dihydrospiro[chromene-2,3′-pyrrolidin]-4-yl)amino)-2-hydroxy-1-(phenylmethyl)propyl)acetamide [compound 812]” the figure was 1.95 µM.
Same read-out and setting: next, “N-((1S,2R)-3-(((4′S)-6′-bromo-3′,4′-dihydrospiro[cyclobutane-1,2′-pyrano[2,3-b]pyridin]-4′-yl)amino)-1-((4-fluorophenyl)methyl)-2-hydroxypropyl)acetamide [compound 843]”: 0.503 µM.
